Values belong to the compound of their own block, whether it stands above or below them.
What was measured:
P450RAI-1 = target: T1, P450RAI-1 (Homo sapiens, UniProt O43174); assay: P450RAI-1 cell-based inhibitor assay (inhibition of all-trans-RA metabolism); details: P450RAI-1 stably transfected HeLa cells, [3H]-RA, 3 hours at 37° C.; read-out: P450RAI-1 Whole cell IC50
T1 construct: expressed in transfected cells; host or cells: HeLa
T1 sequence (O43174 1-497): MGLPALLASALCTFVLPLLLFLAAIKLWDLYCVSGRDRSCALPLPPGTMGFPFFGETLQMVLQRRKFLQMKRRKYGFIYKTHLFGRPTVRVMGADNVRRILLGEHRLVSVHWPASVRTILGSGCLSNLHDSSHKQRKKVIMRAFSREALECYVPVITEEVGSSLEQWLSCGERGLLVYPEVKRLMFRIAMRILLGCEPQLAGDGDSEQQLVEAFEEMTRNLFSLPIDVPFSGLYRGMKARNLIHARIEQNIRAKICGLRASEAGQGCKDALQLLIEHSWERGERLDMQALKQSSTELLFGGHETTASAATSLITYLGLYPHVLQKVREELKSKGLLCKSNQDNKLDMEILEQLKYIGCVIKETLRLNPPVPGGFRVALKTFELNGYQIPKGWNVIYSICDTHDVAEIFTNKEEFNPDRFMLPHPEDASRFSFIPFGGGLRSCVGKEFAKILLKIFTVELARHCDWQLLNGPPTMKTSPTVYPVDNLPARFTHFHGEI
Method: (§1) P450RAI-1 and P450RAI-2 Cell-Based Inhibitor Assay:
(§2) P450RAI-1 stably transfected HeLa cells, or P450RAI-2 stably transfected HeLa cells, as applicable, are maintained in […] tissue culture dishes in Modified Eagle's Medium (MEM) containing 10% Fetal Bovine Serum (FBS) and 100 μg/ml hygromycin. Exponentially growing cells are harvested by incubating in trypsin. Cells are then washed with 1× Phosphate Buffered Saline (PBS) and plated in a 48-well plate at 5×10^5 cells in 0.2 ml MEM medium containing 10% FBS and 0.05 μCi [^3H]—RA in the presence or absence of increasing concentrations of the test compounds. The compounds are diluted in 100% DMSO and then added in triplicate wells at either 10, 1 or 0.1 μM final concentration. As a positive control for RA metabolism inhibition, cells are also incubated with ketoconazole at 100, 10 and 1 μM. Cells are incubated for 3 hours at 37° C. The retinoids are then extracted using the procedure of Bligh et al. (1959) Canadian Journal of Biochemistry 37, 911-917, modified by using methylenechloride instead of chloroform. The publication Bligh et al. (1959) Canadian Journal of Biochemistry 37, 911-917 is specifically incorporated herein by reference. The water soluble radioactivity is quantified using a β-scintillation counter. […]

RAR γ [1] = target: T2, RAR γ (Homo sapiens, UniProt P13631); assay: RARγ EC50/efficacy (Table 1); format: cell-based; details: value in parentheses
T2 sequence (P13631 1-454): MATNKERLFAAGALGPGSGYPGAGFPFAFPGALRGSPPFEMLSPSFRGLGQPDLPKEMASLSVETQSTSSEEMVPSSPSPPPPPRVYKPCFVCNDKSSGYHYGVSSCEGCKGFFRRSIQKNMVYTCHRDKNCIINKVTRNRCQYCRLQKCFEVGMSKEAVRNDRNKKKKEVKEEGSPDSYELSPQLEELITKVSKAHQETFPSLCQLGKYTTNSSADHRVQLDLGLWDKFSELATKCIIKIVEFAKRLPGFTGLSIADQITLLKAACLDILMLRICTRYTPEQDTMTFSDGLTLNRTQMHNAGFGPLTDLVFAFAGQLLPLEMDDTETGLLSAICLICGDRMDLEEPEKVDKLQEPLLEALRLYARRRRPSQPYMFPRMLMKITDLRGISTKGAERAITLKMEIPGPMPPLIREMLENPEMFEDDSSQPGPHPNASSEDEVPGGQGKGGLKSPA

RAR α = target: T3, RAR α (Homo sapiens, UniProt P10276); assay: RARα binding Kd (Table 1); details: last item of cell
T3 sequence (P10276 1-462): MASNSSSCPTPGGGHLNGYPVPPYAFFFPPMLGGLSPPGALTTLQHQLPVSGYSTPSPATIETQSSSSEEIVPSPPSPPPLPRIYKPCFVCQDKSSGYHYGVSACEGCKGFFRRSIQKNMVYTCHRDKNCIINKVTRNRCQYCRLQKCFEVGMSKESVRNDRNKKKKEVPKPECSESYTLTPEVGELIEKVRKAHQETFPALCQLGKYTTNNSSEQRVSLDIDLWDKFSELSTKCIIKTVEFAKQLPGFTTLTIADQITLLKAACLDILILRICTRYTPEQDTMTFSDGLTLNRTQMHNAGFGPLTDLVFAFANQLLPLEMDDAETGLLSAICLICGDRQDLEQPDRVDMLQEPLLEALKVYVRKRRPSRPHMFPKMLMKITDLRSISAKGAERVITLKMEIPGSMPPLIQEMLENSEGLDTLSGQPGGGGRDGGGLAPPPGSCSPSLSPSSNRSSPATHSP

RAR β = target: T4, RAR β (Homo sapiens, UniProt P10826); assay: RARβ binding Kd (Table 1); details: last item of cell
T4 sequence (P10826 1-455): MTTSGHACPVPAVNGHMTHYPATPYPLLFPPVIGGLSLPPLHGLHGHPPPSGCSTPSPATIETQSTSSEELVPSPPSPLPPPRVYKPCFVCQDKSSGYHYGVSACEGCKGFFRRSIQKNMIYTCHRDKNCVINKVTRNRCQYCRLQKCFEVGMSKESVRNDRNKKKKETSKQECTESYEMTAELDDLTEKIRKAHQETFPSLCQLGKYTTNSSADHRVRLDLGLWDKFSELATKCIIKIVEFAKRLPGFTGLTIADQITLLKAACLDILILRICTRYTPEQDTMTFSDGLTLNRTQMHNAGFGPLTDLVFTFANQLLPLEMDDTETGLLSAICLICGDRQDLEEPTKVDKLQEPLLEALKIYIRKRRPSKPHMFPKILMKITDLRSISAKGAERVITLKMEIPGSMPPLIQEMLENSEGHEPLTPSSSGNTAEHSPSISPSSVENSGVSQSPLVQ

RAR γ [2] = target: T2, RAR γ; assay: RARγ binding Kd (Table 1); details: last item of cell
P450RAI-2 = target: T5, P450RAI-2 (Homo sapiens, UniProt Q9NR63); assay: P450RAI-2 cell-based inhibitor assay (inhibition of all-trans-RA metabolism); details: P450RAI-2 stably transfected HeLa cells, [3H]-RA, 3 hours at 37° C.; read-out: P450RAI-2 Whole cell IC50
T5 construct: expressed in transfected cells; host or cells: HeLa
T5 sequence (Q9NR63 1-512): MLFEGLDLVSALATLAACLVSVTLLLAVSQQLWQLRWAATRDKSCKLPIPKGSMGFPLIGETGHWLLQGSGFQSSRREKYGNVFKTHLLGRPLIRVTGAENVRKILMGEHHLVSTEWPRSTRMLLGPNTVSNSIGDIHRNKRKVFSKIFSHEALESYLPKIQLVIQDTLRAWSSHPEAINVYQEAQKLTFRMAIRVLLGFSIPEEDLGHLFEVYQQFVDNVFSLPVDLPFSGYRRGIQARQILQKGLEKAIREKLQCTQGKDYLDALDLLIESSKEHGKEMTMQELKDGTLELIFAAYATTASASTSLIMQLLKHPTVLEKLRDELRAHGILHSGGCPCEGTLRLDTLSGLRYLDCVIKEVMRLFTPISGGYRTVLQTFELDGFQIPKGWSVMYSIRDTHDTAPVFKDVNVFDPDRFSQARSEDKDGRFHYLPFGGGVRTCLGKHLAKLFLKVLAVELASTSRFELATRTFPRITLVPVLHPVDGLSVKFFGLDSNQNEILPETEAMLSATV
Method: as §1, §2

- IC50 (P450RAI-1): 1.3 µM
SMILES: CC(C)c1cc(C(=O)Oc2ccc(/C=C/C(=O)O)cc2)cc2c1OC(C)(C)CC2(C)C [Compound 16, 8-Isopropyl-2,2,4,4-tetramethyl-chroman-6-carboxylic acid 4-(2-carboxy-vinyl)-phenyl ester]

- RAR γ (EFFICACY) (RAR γ [1]): 68
SMILES: C=Cc1c(C)c(C#Cc2ccc(CC(=O)O)cc2)cc(C(C)(C)C)c1OC(C)C [Compound 46, [4-(5-tert-Butyl-4-isopropoxy-2-methyl-3-vinyl-phenylethynyl)-phenyl]-acetic acid]

- Kd (RAR α): > 10 µM
- Kd (RAR β): > 10 µM
- Kd (RAR γ [2]): > 10 µM
SMILES: CN(C1CC1)C1CCC(C)(C)c2cc(C#Cc3ccc(/C=C/C(=O)O)cc3)cc(C3CC3)c21 (stereo not drawn) [Compound 48, 3-{4-[4-Cyclopropyl-5-(cyclopropyl-methyl-amino)-8,8-dimethyl-5,6,7,8-tetrahydro-naphthalen-2-ylethynyl]-phenyl}-acrylic acid]

- IC50 (P450RAI-2): > 10 µM
SMILES: CC(C(=O)O)c1ccc(C#Cc2cc(C3CC3)c3c(c2)C(C)(C)CCC3N(C)C2CC2)cc1 (stereo not drawn) [Compound 49, 2-{4-[4-Cyclopropyl-5-(cyclopropyl-methyl-amino)-8,8-dimethyl-5,6,7,8-tetrahydro-naphthalen-2-ylethynyl]-phenyl}-propionic acid]
